{
  "source": "paper PMC12804144",
  "about": "“Lipopeptide ligands captured by MHC class I molecules undergo dynamic conformational changes that affect their antigenic strength” (The Journal of Biological Chemistry, 2025)",
  "key": {"SN45 TCR": {"tested_on": "SN45 TCR", "assay": "Biolayer interferometry of SN45 TCR with lipopeptide-bound MHC class I complexes", "assay_type": "binding, rhesus monkey", "source_text": "Cell-based analyses may be influenced by undefined factors related to the use of live cells and serum components. Therefore, we first sought to validate the separation of the two groups at the molecular level. To this end, we investigated the kinetics of TCR–lipopeptide interactions in biolayer interferometry experiments. […] All refolded complexes were purified by size-exclusion and anion-exchange chromatography, and nearly identical elution profiles were obtained for each lipopeptide sample. […]\nFigure 1 Biolayer interferometry analysis of interactions between the SN45 TCR and lipopeptide-bound Mamu-B∗05104 complexes. The molecular interaction kinetics of SN45 TCR and lipopeptide-bound Mamu-B∗05104 complexes were assessed using the Octet RED96 system, in which biotinylated SN45 TCR proteins were immobilized on streptavidin-coated sensors, and serially diluted Mamu-B∗05104 complexes were applied as analytes. […]\nBiomolecular interaction analyses were performed using the Octet RED96 system equipped with a streptavidin-conjugated biosensor (Sartorius), according to the manufacturer’s instructions. […] A shift in the interference pattern was monitored in real time during this period. […]"}, "[1]": {"tested_on": "J.RT3/SN45 (SN45 TCR-reconstituted Jurkat T-cell line)", "conditions": "J.RT3/SN45 responder T cells; cited from earlier work", "source_text": "J.RT3, a TCR-deficient Jurkat cell line, was transfected with SN45-derived TCRα and TCRβ complementary DNAs in a previous study. The SN45 TCR-reconstituted T-cell line (J.RT3/SN45) was used as responder T cells to compare antigenic activities among C14nef4-related analogs."}},
  "data": [
    {"substance": "C14-Gly1-Gly2-Ala3-Ile4-Ser5 [C14nef5, reference compound]", "values": [
      {"measurement": "binding to the SN45 TCR", "setting": "SN45 TCR; C14nef5-bound Mamu-B∗098 complex as analyte, negative control", "result": "failed to bind"}
    ]},
    {"substance": "C14-Gly1-Gly2-Ala3-Ile4 [C14nef4]", "values": [
      {"measurement": "antigenic activity group (highly / poorly antigenic)", "setting": "[1]", "result": "highly antigenic"},
      {"measurement": "antigenic group by biolayer interferometry (highly / poorly antigenic)", "setting": "SN45 TCR; lipopeptide-bound Mamu-B∗05104 complex as analyte on immobilized SN45 TCR", "result": "highly antigenic"}
    ]}
  ]
}
